Data reported in patent US20260198493A1, “HYDRAZIDE COMPOUND AND AGRICULTURAL/HORTICULTURAL FUNGICIDE” (Nippon Soda Co., Ltd., priority 2022, published 2026).

Key:
[1] = test system: Colletotrichum acutatum; experiment: Fungicidal effect test against fungi causing apple anthracnose; conditions: 96 h, read-out: growth inhibition ratio
[2] = test system: Fusarium graminearum; experiment: microbe, parasite or virus in culture; format: cell-based; conditions: 96 h, read-out: growth inhibition ratio
[3] = test system: Botrytis cinerea; format: cell-based; conditions: 120 h, 25 ppm by volume, Vogel medium, 20° C., five days, dark, read-out: growth inhibition ratio
[4] = test system: Erysiphe graminis f.sp.tritici; experiment: Control test of wheat powdery mildew disease (sprayed young wheat seedlings); format: in vivo; conditions: Blumeria graminis, 144 h, 125 ppm by mass spray, six days after inoculation
[5] = test system: Botrytis cinerea; experiment: Control test of cucumber gray mold (sprayed young cucumber seedlings); format: in vivo; conditions: 96 h, four days after inoculation; for pest or weed control at 25 ppm: 25 ppm by mass spray; for pest or weed control at 125 ppm: 125 ppm by mass spray
Experimental: Then, the drug liquid was sprayed onto young cucumber seedlings cultivated in a nursery pot (variety “Jihai”-based, cotyledon stage), and then air-dried. […] They were left still in a moist room at 20° C. Four days after inoculation, leaves of the young cucumber seedlings were visually observed, and the control value was calculated from the lesion area ratio in accordance with the following equation. [formula]

[6] = test system: Glomerella cingulata; experiment: Fungicidal effect test against fungi causing grape ripe rot disease; conditions: Colletotrichum gloeosporioides, 72 h, read-out: growth inhibition ratio
[7] = test system: Venturia inaequalis; experiment: Control test of apple scab disease (sprayed young apple seedlings); format: in vivo; conditions: 125 ppm by mass spray, 12 to 14 days after inoculation

COC(=O)N(Cc1ccc(C)cc1C)NC(=O)c1cc(C)nnc1Oc1cccc(F)c1F [b-152]
≥ 75%: inhibition of growth at 25 ppm [1] | inhibition of growth at 25 ppm [2] | inhibition of growth at 25 ppm [3] | pest or weed control at 125 ppm [4] | pest or weed control at 25 ppm [5] | pest or weed control at 125 ppm [5] | inhibition of growth at 25 ppm [6] | pest or weed control at 125 ppm [7]

COC(=O)N(Cc1ccc(C)cc1OC)NC(=O)c1cc(C)nnc1Oc1cccc(C2CC2)c1F [b-153]
≥ 75%: inhibition of growth at 25 ppm [1] | inhibition of growth at 25 ppm [2] | inhibition of growth at 25 ppm [3] | pest or weed control at 125 ppm [4] | pest or weed control at 25 ppm [5] | pest or weed control at 125 ppm [5] | inhibition of growth at 25 ppm [6] | pest or weed control at 125 ppm [7]

CCc1cc(C(=O)NN(Cc2ccc(OC)cc2C)C(=O)OC)c(Oc2cccc(C3CC3)c2F)nn1 [b-154]
≥ 75%: inhibition of growth at 25 ppm [1] | inhibition of growth at 25 ppm [2] | inhibition of growth at 25 ppm [3] | pest or weed control at 125 ppm [4] | pest or weed control at 25 ppm [5] | pest or weed control at 125 ppm [5] | inhibition of growth at 25 ppm [6] | pest or weed control at 125 ppm [7]

COC(=O)N(Cc1ccc(OC)cc1C)NC(=O)c1cc(C)nnc1Oc1cccc(Cl)c1F [b-168]
≥ 75%: inhibition of growth at 25 ppm [1] | inhibition of growth at 25 ppm [2] | inhibition of growth at 25 ppm [3] | pest or weed control at 125 ppm [4] | pest or weed control at 125 ppm [5] | inhibition of growth at 25 ppm [6] | pest or weed control at 125 ppm [7]

COC(=O)N(Cc1ccc(C)cc1C)NC(=O)c1cc(Cl)nnc1Oc1cccc(Cl)c1F [b-169]
≥ 75%: inhibition of growth at 25 ppm [1] | inhibition of growth at 25 ppm [2] | inhibition of growth at 25 ppm [3] | pest or weed control at 125 ppm [4] | pest or weed control at 125 ppm [5] | inhibition of growth at 25 ppm [6] | pest or weed control at 125 ppm [7]

COC(=O)N(Cc1ccc(OC)cc1C)NC(=O)c1cc(Cl)nnc1Oc1cccc(Cl)c1F [b-170]
≥ 75%: inhibition of growth at 25 ppm [1] | inhibition of growth at 25 ppm [2] | inhibition of growth at 25 ppm [3] | pest or weed control at 125 ppm [4] | pest or weed control at 125 ppm [5] | inhibition of growth at 25 ppm [6] | pest or weed control at 125 ppm [7]

COC(=O)N(Cc1ccc(OC)cc1Cl)NC(=O)c1cc(C)nnc1Oc1cccc(C2CC2)c1F [b-171]
≥ 75%: inhibition of growth at 25 ppm [1] | inhibition of growth at 25 ppm [2] | inhibition of growth at 25 ppm [3] | pest or weed control at 125 ppm [4] | pest or weed control at 25 ppm [5] | pest or weed control at 125 ppm [5] | inhibition of growth at 25 ppm [6] | pest or weed control at 125 ppm [7]

COC(=O)N(Cc1ccc(C)cc1Cl)NC(=O)c1c(Oc2cccc(Cl)c2F)nnc(Cl)c1C [b-176]
≥ 75%: inhibition of growth at 25 ppm [1] | inhibition of growth at 25 ppm [2] | inhibition of growth at 25 ppm [3] | pest or weed control at 125 ppm [4] | pest or weed control at 25 ppm [5] | pest or weed control at 125 ppm [5] | inhibition of growth at 25 ppm [6] | pest or weed control at 125 ppm [7]

COC(=O)N(Cc1ccc(C)cc1Cl)NC(=O)c1c(C)cnnc1Oc1cccc(C2CC2)c1F [b-177]
≥ 75%: inhibition of growth at 25 ppm [1] | inhibition of growth at 25 ppm [2] | inhibition of growth at 25 ppm [3] | pest or weed control at 125 ppm [4] | pest or weed control at 25 ppm [5] | pest or weed control at 125 ppm [5] | inhibition of growth at 25 ppm [6] | pest or weed control at 125 ppm [7]

COC(=O)N(Cc1ccc(C)cc1Cl)NC(=O)c1c(C)cncc1Oc1cccc(C2CC2)c1 [b-178]
≥ 75%: inhibition of growth at 25 ppm [1] | inhibition of growth at 25 ppm [2] | inhibition of growth at 25 ppm [3] | pest or weed control at 125 ppm [4] | pest or weed control at 25 ppm [5] | pest or weed control at 125 ppm [5] | inhibition of growth at 25 ppm [6] | pest or weed control at 125 ppm [7]

Cc1ccc(CN(NC(=O)c2cc(C)nnc2Oc2cccc(C3CC3)c2F)C(=O)OC2CC2)c(C)c1 [b-184, Cyclopropyl 2-(3-(3-cyclopropyl-2-fluorophenoxy)-6-methylpyridazine-4-carbonyl)-1-(2,4-dimethylbenzyl)hydrazine-1-carboxylate]
≥ 75%: inhibition of growth at 25 ppm [1] | inhibition of growth at 25 ppm [2] | inhibition of growth at 25 ppm [3] | pest or weed control at 125 ppm [4] | pest or weed control at 25 ppm [5] | pest or weed control at 125 ppm [5] | inhibition of growth at 25 ppm [6] | pest or weed control at 125 ppm [7]

COC(=O)N(Cc1ccc(C)cc1C)NC(=O)c1ccncc1Oc1cccc(Cl)c1F [b-187]
≥ 75%: inhibition of growth at 25 ppm [1] | inhibition of growth at 25 ppm [2] | inhibition of growth at 25 ppm [3] | pest or weed control at 125 ppm [4] | pest or weed control at 25 ppm [5] | pest or weed control at 125 ppm [5] | inhibition of growth at 25 ppm [6] | pest or weed control at 125 ppm [7]

COC(=O)N(Cc1ccc(C)cc1C)NC(=O)c1c(C)cnnc1Oc1cccc(Cl)c1F [b-191]
≥ 75%: inhibition of growth at 25 ppm [1] | inhibition of growth at 25 ppm [2] | inhibition of growth at 25 ppm [3] | pest or weed control at 125 ppm [4] | pest or weed control at 25 ppm [5] | pest or weed control at 125 ppm [5] | inhibition of growth at 25 ppm [6] | pest or weed control at 125 ppm [7]

Cc1ccc(CN(NC(=O)c2ccncc2Oc2cccc(C3CC3)c2F)C(=O)OC2COC2)c(C)c1 [b-196]
≥ 75%: inhibition of growth at 25 ppm [1] | inhibition of growth at 25 ppm [2] | inhibition of growth at 25 ppm [3] | pest or weed control at 125 ppm [4] | pest or weed control at 25 ppm [5] | pest or weed control at 125 ppm [5] | inhibition of growth at 25 ppm [6] | pest or weed control at 125 ppm [7]

COC(=O)N(Cc1ccc(C)cc1C)NC(=O)c1c(F)cncc1Oc1cccc(C2CC2)c1F [b-199]
≥ 75%: inhibition of growth at 25 ppm [1] | inhibition of growth at 25 ppm [2] | inhibition of growth at 25 ppm [3] | pest or weed control at 125 ppm [4] | pest or weed control at 25 ppm [5] | pest or weed control at 125 ppm [5] | inhibition of growth at 25 ppm [6] | pest or weed control at 125 ppm [7]

COC(=O)N(Cc1ccc(OC)cc1C)NC(=O)c1c(F)cncc1Oc1cccc(Cl)c1F [b-202]
≥ 75%: inhibition of growth at 25 ppm [1] | inhibition of growth at 25 ppm [2] | inhibition of growth at 25 ppm [3] | pest or weed control at 125 ppm [4] | pest or weed control at 25 ppm [5] | pest or weed control at 125 ppm [5] | inhibition of growth at 25 ppm [6] | pest or weed control at 125 ppm [7]

COC(=O)N(Cc1ccc(C)cc1C)NC(=O)c1cc(C(F)(F)F)ncc1Oc1cccc(C2CC2)c1F [b-204]
≥ 75%: inhibition of growth at 25 ppm [1] | inhibition of growth at 25 ppm [2] | inhibition of growth at 25 ppm [3] | pest or weed control at 125 ppm [4] | pest or weed control at 25 ppm [5] | pest or weed control at 125 ppm [5] | inhibition of growth at 25 ppm [6] | pest or weed control at 125 ppm [7]

COC(=O)N(Cc1ccc(C)cc1C)NC(=O)c1c(OC)cncc1Oc1cccc(C2CC2)c1F [b-208]
≥ 75%: inhibition of growth at 25 ppm [1] | inhibition of growth at 25 ppm [2] | inhibition of growth at 25 ppm [3] | pest or weed control at 125 ppm [4] | pest or weed control at 25 ppm [5] | pest or weed control at 125 ppm [5] | inhibition of growth at 25 ppm [6] | pest or weed control at 125 ppm [7]

CCc1cncc(Oc2cccc(C3CC3)c2F)c1C(=O)NN(Cc1ccc(C)cc1C)C(=O)OC [b-212]
≥ 75%: inhibition of growth at 25 ppm [1] | inhibition of growth at 25 ppm [2] | inhibition of growth at 25 ppm [3] | pest or weed control at 125 ppm [4] | pest or weed control at 25 ppm [5] | pest or weed control at 125 ppm [5] | inhibition of growth at 25 ppm [6] | pest or weed control at 125 ppm [7]
